The term IC50 denotes the concentration that inhibits the measured activity by half. High values mean a need for much substance, low ones inhibition by little substance.

Assay [1] concerns Leishmania donovani. As to the kind of experiment: The in vitro leishmanicidal activity by measuring the 3H thymidine incorporation in promastigotes of Leishmania donovani at 200 uM concentration. Format: functional. (Dividing cells build labelled thymidine or BrdU into new DNA.)
The subject of assay [2] is Leishmania donovani. As to the kind of experiment: The in vitro leishmanicidal activity by measuring the 3H thymidine incorporation in promastigotes of Leishmania donovani. Format: functional, organism-based.
The subject of assay [3] is Leishmania donovani. As to the kind of experiment: The in vitro leishmanicidal activity by measuring the 3H thymidine incorporation in promastigotes of Leishmania donovani at 100 uM concentration. Format: functional.

As for `CSc1nc2nc(NS(=O)(=O)c3ccc(Cl)cc3)nn2c(N)c1C#N`, the Growth inhibition in the assay with Leishmania donovani [1] is 17%.
As for `Nc1n[nH]c(NS(=O)(=O)c2ccccc2)n1`, half-maximal inhibition with Leishmania donovani [2] (IC50) required 2 µM. Moreover, in the assay on Leishmania donovani [1], the Growth inhibition came out at 97%.
Take `Cc1ccc(S(=O)(=O)Nc2nc3nc(-c4ccccc4)cc(O)n3n2)cc1`: inhibition in the assay on Leishmania donovani [2] was half-maximal at 2 µM (IC50). Moreover, the Growth inhibition in the assay with Leishmania donovani [1] was found to be 100%.
In the assay on Leishmania donovani [1], `N#Cc1cnc2nc(NS(=O)(=O)c3ccc(Cl)cc3)nn2c1N` yielded a Growth inhibition of 0%.
The compound `Cc1ccc2nc(NS(=O)(=O)c3ccc(N)cc3)oc2c1` displayed a half-maximal inhibitory concentration (IC50) with Leishmania donovani [2] of 15.5 µM. Further, in the assay with Leishmania donovani [1], the Growth inhibition is listed as 92.6%.
`CCOC(=O)c1cnc2nc(NS(=O)(=O)c3ccc(Cl)cc3)nn2c1O` returned a Growth inhibition in the assay with Leishmania donovani [1] of 0%.
Still for that read-out and setting: as for `Cc1cc(O)n2nc(NS(=O)(=O)c3ccc(Cl)cc3)nc2n1`, the figure is 5%; as for `O=S(=O)(Nc1nc2nc3c(c(O)n2n1)CCC3)c1ccc(Cl)cc1`, 15%; as for `CCOC(=O)c1cnc2nc(NS(=O)(=O)c3ccc(Cl)cc3)nn2c1N`, 0%.
Take `Nc1ccc(S(=O)(=O)Nc2nc3ccccc3o2)cc1`: the IC50 in the assay with Leishmania donovani [2] was found to be 6.4 µM. This compound also yielded a Growth inhibition in the assay on Leishmania donovani [1] of 74%.
For the compound `Cc1ccc(S(=O)(=O)Nc2nc3nc(C)cc(C)n3n2)cc1`, in the assay on Leishmania donovani [2], half-maximal inhibition (IC50) required 1.5 µM. This compound returned a Growth inhibition in the assay with Leishmania donovani [1] of 100%.
On to `N=C(N)c1ccc(OCCCCCOc2ccc(C(=N)N)cc2)cc1` [PENTAMIDINE], for which the midpoint of inhibition in the assay with Leishmania donovani [2], the IC50, lay at 0.76 µM. For the same compound, in the assay with Leishmania donovani [3], the Growth inhibition is listed as 100%.
`Cc1cc(C)n2nc(NS(=O)(=O)c3ccc(Cl)cc3)nc2n1` showed a Growth inhibition in the assay with Leishmania donovani [1] of 3%.
In the assay with Leishmania donovani [2], `Nc1ccc(S(=O)(=O)Nc2nc3ccccc3[nH]2)cc1` gave an IC50 of 10.5 µM. The compound further returned a Growth inhibition in the assay on Leishmania donovani [1] of 80%.
For the compound `O=S(=O)(Nc1nc2nc(-c3ccccc3)cc(-c3ccccc3)n2n1)c1ccc(Cl)cc1`, in the assay with Leishmania donovani [2], the IC50 turned out to be 2 µM. The same compound came in with a Growth inhibition with Leishmania donovani [1] of 98%.
